According to ChEMBL document CHEMBL1201862, “PubChem BioAssay data set” (2004):
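A five-concentration, 48-hour dose response in 96-well plates underlies each endpoint, interpolated linearly between surrounding concentrations. GI50: concentration for 50% inhibition of growth.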 Active and inactive are the calls of the source. No stated cut-off is given here; in the data, active = GI50 up to about 1.1 µM and inactive = higher.

Tests used:
Experiment in all cases: NCI anticancer screen, dose series, 48 h
PC-3 = system: PC-3
BT-549 = system: BT-549
HT-29 = system: HT-29
SNB-19 = system: SNB-19
Hs-578T = system: Hs-578T
SF-539 = system: SF-539
UO-31 = system: UO-31
K562 = system: K562
SF-268 = system: SF-268
SNB-75 = system: SNB-75
HOP-62 = system: HOP-62
IGROV-1 = system: IGROV-1
CAKI-1 = system: CAKI-1
SK-MEL-2 = system: SK-MEL-2
786-0 = system: 786-0
UACC-62 = system: UACC-62
HCC 2998 = system: HCC 2998
ACHN = system: ACHN
RPMI-8226 = system: RPMI-8226

| Structure (SMILES) | GI50 (PC-3) | GI50 (BT-549) | GI50 (HT-29) | GI50 (SNB-19) | GI50 (Hs-578T) | GI50 (SF-539) | GI50 (UO-31) | GI50 (K562) | GI50 (SF-268) | GI50 (SNB-75) | GI50 (HOP-62) | GI50 (IGROV-1) | GI50 (CAKI-1) | GI50 (SK-MEL-2) | GI50 (786-0) | GI50 (UACC-62) | GI50 (HCC 2998) | GI50 (ACHN) | GI50 (RPMI-8226) |
| --- | --- | --- | --- | --- | --- | --- | --- | --- | --- | --- | --- | --- | --- | --- | --- | --- | --- | --- | --- |
| CCCCCCCCC/C=C1/CC(CO)(COC(=O)c2ccccc2)OC1=O (centres undefined) | 10.8 µM (inactive) | 14.1 µM (inactive) | 17.7 µM (inactive) | 15.4 µM (inactive) | 3.69 µM (inactive) | 20.4 µM (inactive) | 13 µM (inactive) | 3.89 µM (inactive) | 15.7 µM (inactive) | 10.2 µM (inactive) | 4.92 µM (inactive) | 16.1 µM (inactive) | 12.2 µM (inactive) | 16.3 µM (inactive) | 10.4 µM (inactive) | 14.7 µM (inactive) | 14.6 µM (inactive) | 12.4 µM (inactive) | – |
| Nc1c(S(N)(=O)=O)cc(S(N)(=O)=O)cc1S(N)(=O)=O | 61.1 µM (inactive) | > 100 µM (inactive) | > 100 µM (inactive) | > 100 µM (inactive) | > 100 µM (inactive) | – | > 100 µM (inactive) | > 100 µM (inactive) | > 100 µM (inactive) | > 100 µM (inactive) | > 100 µM (inactive) | > 100 µM (inactive) | > 100 µM (inactive) | – | > 100 µM (inactive) | > 100 µM (inactive) | > 100 µM (inactive) | > 100 µM (inactive) | > 100 µM (inactive) |
| O=P(O)(O)CCP(=O)(O)O | > 100 µM (inactive) | > 100 µM (inactive) | > 100 µM (inactive) | > 100 µM (inactive) | > 100 µM (inactive) | > 100 µM (inactive) | > 100 µM (inactive) | > 100 µM (inactive) | > 100 µM (inactive) | – | > 100 µM (inactive) | > 100 µM (inactive) | > 100 µM (inactive) | > 100 µM (inactive) | > 100 µM (inactive) | > 100 µM (inactive) | – | > 100 µM (inactive) | > 100 µM (inactive) |
| COc1ccc(/C=C/NC=O)cc1 | > 100 µM (inactive) | > 100 µM (inactive) | > 100 µM (inactive) | > 100 µM (inactive) | > 100 µM (inactive) | > 100 µM (inactive) | > 100 µM (inactive) | > 100 µM (inactive) | > 100 µM (inactive) | 18.1 µM (inactive) | > 100 µM (inactive) | > 100 µM (inactive) | – | > 100 µM (inactive) | > 100 µM (inactive) | > 100 µM (inactive) | > 100 µM (inactive) | > 100 µM (inactive) | > 100 µM (inactive) |
| COC(=O)c1ccccc1C#CCCCOS(C)(=O)=O | > 10 µM (inactive) | > 10 µM (inactive) | > 10 µM (inactive) | > 10 µM (inactive) | > 10 µM (inactive) | > 10 µM (inactive) | > 10 µM (inactive) | > 10 µM (inactive) | > 10 µM (inactive) | – | > 10 µM (inactive) | > 10 µM (inactive) | > 10 µM (inactive) | > 10 µM (inactive) | > 10 µM (inactive) | > 10 µM (inactive) | > 10 µM (inactive) | > 10 µM (inactive) | > 10 µM (inactive) |
| O=S(=O)(c1ccccc1)c1ccc(-c2nc(-c3ccc4c(c3)Sc3ccccc3S4)cs2)cc1 | > 100 µM (inactive) | 30.3 µM (inactive) | > 100 µM (inactive) | 11.7 µM (inactive) | 8.69 µM (inactive) | 49.5 µM (inactive) | > 100 µM (inactive) | 69 µM (inactive) | 26.7 µM (inactive) | 10.8 µM (inactive) | 15.9 µM (inactive) | – | > 100 µM (inactive) | – | 17.2 µM (inactive) | 25.6 µM (inactive) | 35.5 µM (inactive) | 38.7 µM (inactive) | > 100 µM (inactive) |
| CC(NC(=O)C(C)C(=O)Nc1ccc(C(F)(F)F)cc1)C(N)=O (centres undefined) | > 100 µM (inactive) | > 100 µM (inactive) | > 100 µM (inactive) | 94 µM (inactive) | > 100 µM (inactive) | > 100 µM (inactive) | > 100 µM (inactive) | > 100 µM (inactive) | > 100 µM (inactive) | > 100 µM (inactive) | – | > 100 µM (inactive) | > 100 µM (inactive) | > 100 µM (inactive) | > 100 µM (inactive) | > 100 µM (inactive) | – | > 100 µM (inactive) | > 100 µM (inactive) |
| COc1ccc(/C=c2\s/c(=C3/SC(=S)N(c4ccccc4)C3=O)n(-c3ccccc3)c2=O)cc1 | > 100 µM (inactive) | 43.2 µM (inactive) | > 100 µM (inactive) | 35.4 µM (inactive) | 18.9 µM (inactive) | 32.8 µM (inactive) | 73.1 µM (inactive) | > 100 µM (inactive) | 0.895 µM (active) | 4.61 µM (inactive) | 21.6 µM (inactive) | 19.7 µM (inactive) | 32.9 µM (inactive) | – | 43.6 µM (inactive) | 61 µM (inactive) | > 100 µM (inactive) | 13.6 µM (inactive) | > 100 µM (inactive) |
| O=C1c2ccccc2CC12Cc1ccc3c(c1C2=O)CCCC3 (centres undefined) | 66.7 µM (inactive) | > 100 µM (inactive) | 6.49 µM (inactive) | 20.7 µM (inactive) | 0.491 µM (active) | 4.89 µM (inactive) | 9.27 µM (inactive) | 21.6 µM (inactive) | > 100 µM (inactive) | 6.52 µM (inactive) | 7.74 µM (inactive) | 4.71 µM (inactive) | – | > 100 µM (inactive) | 7.85 µM (inactive) | 8.2 µM (inactive) | > 100 µM (inactive) | 7.83 µM (inactive) | 18.2 µM (inactive) |
| O=C1CC(=O)n2cnc3cccc(c32)N1 | > 100 µM (inactive) | > 100 µM (inactive) | > 100 µM (inactive) | > 100 µM (inactive) | > 100 µM (inactive) | > 100 µM (inactive) | > 100 µM (inactive) | > 100 µM (inactive) | > 100 µM (inactive) | > 100 µM (inactive) | > 100 µM (inactive) | > 100 µM (inactive) | > 100 µM (inactive) | > 100 µM (inactive) | > 100 µM (inactive) | > 100 µM (inactive) | – | – | > 100 µM (inactive) |
| Oc1nnnc2c1sc1ncccc12 | > 100 µM (inactive) | > 100 µM (inactive) | > 100 µM (inactive) | > 100 µM (inactive) | > 100 µM (inactive) | > 100 µM (inactive) | 84.5 µM (inactive) | > 100 µM (inactive) | > 100 µM (inactive) | 25.1 µM (inactive) | > 100 µM (inactive) | > 100 µM (inactive) | > 100 µM (inactive) | > 100 µM (inactive) | > 100 µM (inactive) | > 100 µM (inactive) | > 100 µM (inactive) | > 100 µM (inactive) | – |
| Cc1ccc(CS(=O)(=O)C/N=C2\Sc3ccccc3N\C2=C/C(=O)c2ccc(Cl)cc2)cc1 | > 10 µM (inactive) | > 10 µM (inactive) | > 10 µM (inactive) | > 10 µM (inactive) | 9.55 µM (inactive) | > 10 µM (inactive) | – | > 10 µM (inactive) | 7.1 µM (inactive) | 3.86 µM (inactive) | 8.22 µM (inactive) | > 10 µM (inactive) | > 10 µM (inactive) | – | > 10 µM (inactive) | > 10 µM (inactive) | > 10 µM (inactive) | > 10 µM (inactive) | > 10 µM (inactive) |
| Cc1n[n+](Cc2ccccc2)c2sc(N)nn12 | > 100 µM (inactive) | 38.4 µM (inactive) | 59 µM (inactive) | > 100 µM (inactive) | > 100 µM (inactive) | > 100 µM (inactive) | > 100 µM (inactive) | 76.7 µM (inactive) | 35.3 µM (inactive) | > 100 µM (inactive) | > 100 µM (inactive) | > 100 µM (inactive) | > 100 µM (inactive) | > 100 µM (inactive) | > 100 µM (inactive) | 10.2 µM (inactive) | – | > 100 µM (inactive) | > 100 µM (inactive) |
| COc1cc(N(CCC#N)CCC#N)ccc1C(/N=N/c1cccc([N+](=O)[O-])c1)=N\NC(=O)c1ccc(C)cc1 | > 100 µM (inactive) | 22 µM (inactive) | 92 µM (inactive) | > 100 µM (inactive) | > 100 µM (inactive) | – | 71 µM (inactive) | 73.5 µM (inactive) | > 100 µM (inactive) | – | > 100 µM (inactive) | > 100 µM (inactive) | > 100 µM (inactive) | > 100 µM (inactive) | > 100 µM (inactive) | > 100 µM (inactive) | 26 µM (inactive) | > 100 µM (inactive) | 18.6 µM (inactive) |
| Cc1ccc2c(=O)c3cccc(CC(=O)O)c3[nH]c2c1C | > 100 µM (inactive) | > 100 µM (inactive) | > 100 µM (inactive) | > 100 µM (inactive) | 72.1 µM (inactive) | > 100 µM (inactive) | > 100 µM (inactive) | > 100 µM (inactive) | 17.5 µM (inactive) | – | > 100 µM (inactive) | > 100 µM (inactive) | > 100 µM (inactive) | – | > 100 µM (inactive) | > 100 µM (inactive) | > 10 µM (inactive) | > 100 µM (inactive) | > 100 µM (inactive) |
| Cc1ccc(S(N)(=O)=O)cc1 [P-TOLUENESULFONAMIDE] | > 1000 µM (inactive) | 977 µM (inactive) | > 1000 µM (inactive) | > 1000 µM (inactive) | > 1000 µM (inactive) | > 1000 µM (inactive) | > 1000 µM (inactive) | > 1000 µM (inactive) | > 1000 µM (inactive) | – | > 1000 µM (inactive) | > 1000 µM (inactive) | – | > 1000 µM (inactive) | > 1000 µM (inactive) | > 1000 µM (inactive) | > 1000 µM (inactive) | > 1000 µM (inactive) | > 1000 µM (inactive) |
